Test results taken from patent US5455249A, “Phosphorylcarbamates of rapamycin and oxime derivatives thereof” (priority 1994, dated 1995).
Where “and” joins values, the source holds several entries; their conditions need not be identical. Identical values can stand only once.

Assays:
[1] = system: lymphocyte (thymocyte / T-cell) proliferation; test: Comitogen-induced thymocyte proliferation procedure (LAF); assay type: cell-based, normal BALB/c mice; conditions: for inhibition at 0.1 µM / IC50: Mus musculus; for inhibition at 0.1 µM: T-cell, read-out: % Inhib. (percent inhibition of T-cell proliferation at 0.1 μM); for IC50: Thymocyte, thymus cells of BALB/c mice cultured 72 hours with PHA and IL-1, tritiated thymidine pulse during last six hours; for LAF (ratio) compared with rapamycin: >1 means test compound inhibits thymocyte proliferation more than rapamycin
Description: (§1) Immunosuppressive activity for representative compounds of this invention was evaluated in an in vitro standard pharmacological test procedure to measure lymphocyte proliferation (LAF) and in an in vivo standard pharmacological test procedure which evaluated the survival time of a pinch skin graft.
The comitogen-induced thymocyte proliferation procedure (LAF) was used as an in vitro measure of the immunosuppressive effects of representative compounds. Briefly, cells from the thymus of normal BALB/c mice are cultured for 72 hours with PHA and IL-1 and pulsed with tritiated thymidine during the last six hours. Cells are cultured with and without various concentrations of rapamycin, cyclosporin A, or test compound. Cells are harvested and incorporated radioactivity is determined. Inhibition of lymphoproliferation is assessed as percent change in counts per minute from non-drug treated controls. For each compound evaluated, rapamycin was also evaluated for the purpose of comparison. An IC50 was obtained for each test compound as well as for rapamycin. […] The results obtained are provided as an IC50 and as the percent inhibition of T-cell proliferation at 0.1 μM. The results obtained for the representative compounds of this invention were also expressed as a ratio compared with rapamycin. A positive ratio indicates immunosuppressive activity. […] Calculation of the ratio is shown below. [formula]

[2] = system: pinch skin graft; test: Pinch skin graft survival time; assay type: in vivo, male BALB/c donors, male C3H(H-2K) recipients; conditions: 4 mg/kg, intraperitoneally or orally; untreated controls rejected within 6-7 days
Description: as §1
Representative compounds of this invention were also evaluated in an in vivo test procedure designed to determine the survival time of pinch skin graft from male BALB/c donors transplanted to male C3 H(H-2K) recipients. The method is adapted from Billingham R. E. and Medawar P. B., J. Exp. Biol. 28:385-402, (1951 ). Briefly, a pinch skin graft from the donor was grafted on the dorsum of the recipient as a allograft, and an isograft was used as control in the same region. The recipients were treated with either varying concentrations of test compounds intraperitoneally or orally. Rapamycin was used as a test control. Untreated recipients serve as rejection control. The graft was monitored daily and observations were recorded until the graft became dry and formed a blackened scab. This was considered as the rejection day. The mean graft survival time (number of days±S.D.) of the drug treatment group was compared with the control group. […] Results are expressed as the mean survival time in days. Untreated (control) pinch skin grafts are usually rejected within 6-7 days. The results shown in Table 1 are based on a dose of 4 mg/kg of test compound. A survival time of 12.0 ±1.7 days was obtained for rapamycin at 4 mg/kg.

[3] = system: Candida albicans; conditions: in vitro and in vivo; cited from earlier work
[4] = system: experimental allergic encephalomyelitis model, a model for multiple sclerosis; conditions: in vivo; cited from earlier work
[5] = system: adjuvant arthritis model, a model for rheumatoid arthritis; conditions: in vivo; cited from earlier work
[6] = system: formation of IgE-like antibodies; conditions: in vivo; cited from earlier work
[7] = alone or in combination with picibanil; cited from earlier work

| SMILES | inhibition at 0.1 µM [1] [%] | IC50 [1] [µM] | LAF (ratio) compared with rapamycin [1] | Skin Graft mean survival time (days ± SD) [2] | antifungal activity [3] | effect in the experimental allergic encephalomyelitis model [4] | effect in the adjuvant arthritis model [5] | inhibition of the formation of IgE-like antibodies [6] | antitumor activity [7] |
| --- | --- | --- | --- | --- | --- | --- | --- | --- | --- |
| CCOP(=O)(NC(=O)O[C@@H]1CC[C@@H](C[C@@H](C)[C@@H]2C/C(=N/OC)[C@H](C)/C=C(\C)[C@@H](O)[C@@H](OC)C(=O)[C@H](C)C[C@H](C)/C=C/C=C/C=C(\C)[C@@H](OC)C[C@@H]3CC[C@@H](C)[C@@](O)(O3)C(=O)C(=O)N3CCCC[C@H]3C(=O)O2)C[C@H]1OC)OCC [Example 4, Rapamycin 42-ester with (diethoxyphosphoryl)carbamic acid (Z)-27-O-(methyl)oxime] | 82 | 0.0419 | 0.01 | – | – | – | – | – | – |
| CCOP(=O)(NC(=O)O[C@@H]1/C(C)=C/[C@@H](C)C(=O)C[C@@H]([C@H](C)C[C@@H]2CC[C@@H](OC(=O)NP(=O)(OCC)OCC)[C@H](OC)C2)OC(=O)[C@@H]2CCCCN2C(=O)C(=O)[C@]2(O)O[C@@H](CC[C@H]2C)C[C@H](OC)/C(C)=C/C=C/C=C/[C@@H](C)C[C@@H](C)C(=O)[C@@H]1OC)OCC [Example 1, Rapamycin 31,42-diester with (diethoxyphosphoryl)carbamic acid] | 72 | 0.0909 | 0.04 | 7.2 ± 0.4 days | – | – | – | – | – |
| CCOP(=O)(NC(=O)O[C@@H]1CC[C@@H](C[C@@H](C)[C@@H]2CC(=O)[C@H](C)/C=C(\C)[C@@H](O)[C@@H](OC)C(=O)[C@H](C)C[C@H](C)/C=C/C=C/C=C(\C)[C@@H](OC)C[C@@H]3CC[C@@H](C)[C@@](O)(O3)C(=O)C(=O)N3CCCC[C@H]3C(=O)O2)C[C@H]1OC)OCC [Example 2, Rapamycin 42-ester with (diethoxyphosphoryl)carbamic acid] | 95 | 0.01 | 0.44 | 10.2 ± 0.4 days and 10.0 ± 0.6 days | – | – | – | – | – |
| CO[C@H]1C[C@@H]2CC[C@@H](C)[C@@](O)(O2)C(=O)C(=O)N2CCCC[C@H]2C(=O)O[C@H]([C@H](C)C[C@@H]2CC[C@@H](O)[C@H](OC)C2)CC(=O)[C@H](C)/C=C(\C)[C@@H](O)[C@@H](OC)C(=O)[C@H](C)C[C@H](C)/C=C/C=C/C=C/1C [rapamycin] | – | 0.0004 to 0.0051 | – | 12.0 ± 1.7 days | antifungal activity, particularly against Candida albicans, both in vitro and in vivo | effective | effective | effectively inhibited the formation of IgE-like antibodies | antitumor activity |
| CCOP(=O)(NC(=O)O[C@@H]1CC[C@@H](C[C@@H](C)[C@@H]2C/C(=N\OC)[C@H](C)/C=C(\C)[C@@H](O)[C@@H](OC)C(=O)[C@H](C)C[C@H](C)/C=C/C=C/C=C(\C)[C@@H](OC)C[C@@H]3CC[C@@H](C)[C@@](O)(O3)C(=O)C(=O)N3CCCC[C@H]3C(=O)O2)C[C@H]1OC)OCC [Example 3, Rapamycin 42-ester with (diethoxyphosphoryl)carbamic acid (E)-27-O-(methyl)oxime] | 51 | 0.099 | 0.05 | – | – | – | – | – | – |
